ChEMBL document CHEMBL3297723, “Ethyl 1,8-naphthyridone-3-carboxylates downregulate human papillomavirus-16 E6 and E7 oncogene expression” (J Med Chem, 2014)
Activity calls are given as the source filed them. The rule behind the calls is not given here.

Assays:
[1] = (§1) Inhibition of HPV-16 LCR transcriptional activity in human P21 cells after 24 hrs by luciferase reporter gene assay; type: cell-based; conditions: Alphapapillomavirus 9, P21, 24 h
[2] = Cytotoxicity against human P21 cells assessed as inhibition of cell viability after 24 hrs by CellTiter96 assay; type: cell-based
P21 [3] = assay: Inhibition of HPV-16 LCR transcriptional activity in human P21 cells at 30 uM after 24 hrs by luciferase reporter gene assay; type: cell-based; conditions: Alphapapillomavirus 9
[4] = Selectivity index, ratio of CC50 for human P21 cells to IC50 for HPV-16 LCR transcriptional activity in human P21 cells; type: functional
P21 [5] = assay: Inhibition of HPV-16 LCR transcriptional activity in human P21 cells at 100 uM after 24 hrs by luciferase reporter gene assay; type: cell-based; conditions: Alphapapillomavirus 9
[6] = Drug uptake in human CaSki cells at 10 uM after 1 hr by reverse-phase HPLC analysis; type: ADME, cell-based; conditions: ca-ski
[7] = Cytotoxicity against human CaSki cells assessed as inhibition of cell proliferation at 10 uM after 24 hrs by CellTiter96 assay; type: cell-based; conditions: ca-ski
[8] = Drug uptake in human CaSki cells at 10 uM after 16 hrs by reverse-phase HPLC analysis; type: ADME, cell-based; conditions: ca-ski
Ca-Ski [9] = assay: Inhibition of LCR-mediated E7 mRNA expression in HPV-16-positive human CaSki cells at 10 uM after 24 hrs by RT-PCR analysis; type: cell-based; conditions: Alphapapillomavirus 9
Ca-Ski [10] = assay: Inhibition of LCR-mediated E6 mRNA expression in HPV-16-positive human CaSki cells at 10 uM after 24 hrs by RT-PCR analysis; type: cell-based; conditions: Alphapapillomavirus 9
Rotavirus = assay: Antiviral activity against HRV infected in […] cells assessed as protection against virus-induced cytopathogenicity; type: functional, organism-based
[11] = tested on: Vesicular stomatitis virus; assay: Antiviral activity against VSV infected in african green monkey Vero cells assessed as protection against virus-induced cytopathogenicity; type: functional, organism-based
[12] = tested on: Human immunodeficiency virus 1; assay: Antiviral activity against HIV-1 3B infected in human MT4 cells assessed as protection against virus-induced cytopathogenicity; type: functional, organism-based
Human orthopneumovirus = assay: Antiviral activity against RSV infected in human Hep2 cells assessed as protection against virus-induced cytopathogenicity; type: functional, organism-based; conditions: human respiratory syncytial virus; HEp-2
Human alphaherpesvirus 2 = assay: Antiviral activity against HSV2 infected in african green monkey Vero cells assessed as protection against virus-induced cytopathogenicity; type: functional, organism-based
P21 [13] = assay: as §1; type: cell-based; conditions: Alphapapillomavirus 9

Row | Structure (SMILES) | IC50 [1] [µM] | CC50 at 24 h [2] [µM] | inhibition (P21 [3]) [%] | Ratio CC50/IC50 [4] | inhibition (P21 [5]) [%] | Drug uptake [6] | Activity [7] | Drug uptake [8] [%] | inhibition (Ca-Ski [9]) [%] | inhibition (Ca-Ski [10]) [%] | Activity (Rotavirus) | Activity [11] | Activity [12] | Activity (Human orthopneumovirus) | Activity (Human alphaherpesvirus 2) | inhibition (P21 [13])
1 | CCOC(=O)c1cn(Cc2ccc(C(F)(F)F)cc2)c2nc(N3CCN(c4nc5ccccc5s4)CC3)ccc2c1=O | 10.9 | 78.2 | 67.5 | 7.16 | 89.3 |  |  |  |  |  |  |  |  |  |  | 
2 | O=C(O)c1cn(Cc2cccc(Cl)c2F)c2nc(N3CCN(c4nccs4)CC3)ccc2c1=O |  |  | 7.39 |  | 2.1 | 20% | Non-toxic | 63 |  |  |  |  |  |  |  | 
3 | O=C(O)c1cn(Cc2cccc(Cl)c2F)c2nc(N3CCN(c4ccc5ccccc5n4)CC3)ccc2c1=O | 2.86 | 17.6 | 99.3 | 6.1 | 100 | 20% | Non-toxic | 38 |  |  |  |  |  |  |  | 
4 | CCOC(=O)c1cn(Cc2ccccn2)c2nc(N3CCN(c4nc5ccccc5s4)CC3)ccc2c1=O | 5.3 | 34.6 | 63.1 | 6.5 | 73.4 |  |  |  |  |  |  |  |  |  |  | 
5 | CCOC(=O)c1cn(Cc2cccc(Cl)c2F)c2nc(N3CCN(c4ccc5ccccc5n4)CC3)ccc2c1=O | 0.21 | 59.3 | 92.3 | 282 | 93.7 | Not Active | Non-toxic | 40 | 57.4 | 61.5 |  |  |  |  |  | 
6 | CCOC(=O)c1cn(Cc2cccc(Cl)c2F)c2nc(N3CCN(c4nccs4)CC3)ccc2c1=O | 1.21 | 25.3 | 98 | 20.9 | 99.7 | Not Active | Non-toxic | 70 | 72.7 | 71.7 |  |  |  |  |  | 
7 | CCOC(=O)c1cn(Cc2ccccc2F)c2nc(N3CCN(c4nc5ccccc5s4)CC3)ccc2c1=O | 4.18 | > 100 | 88.6 | >23.9 | 75.6 |  |  |  |  |  |  |  |  |  |  | 
8 | CCOC(=O)c1cn(CCc2ccccn2)c2nc(N3CCN(c4nc5ccccc5s4)CC3)ccc2c1=O | 1.05 | 17.1 | 87 | 16.2 | 100 |  |  |  |  |  |  |  |  |  |  | 
9 | CCOC(=O)c1cn(Cc2cccc(Cl)c2F)c2nc(N3CCN(c4nc5ccccc5s4)CC3)ccc2c1=O | 0.26 | > 100 | 82.8 | >385 | 94.9 | Not Active | Non-toxic | 15 |  |  | inactive | Active | inactive | Active | Active | 
10 | O=C(O)c1cn(Cc2cccc(Cl)c2F)c2nc(N3CCN(c4nc5ccccc5s4)CC3)ccc2c1=O |  |  | 38.3 |  | 56 | 20% | Non-toxic | 35 |  |  |  |  |  |  |  | 
11 | CCOC(=O)c1cn(CCc2ccc(Cl)cc2)c2nc(N3CCN(c4nc5ccccc5s4)CC3)ccc2c1=O |  |  | 49.6 |  | 50.4 |  |  |  |  |  |  |  |  |  |  | 
12 | O=C(O)c1cn(Cc2cccc(Cl)c2F)c2nc(N3CCN(c4ccccn4)CC3)ccc2c1=O |  |  | 30.5 |  | 25.8 |  | Non-toxic |  |  |  |  |  |  |  |  | 
13 | CCOC(=O)c1cn(Cc2ccccc2)c2nc(N3CCN(c4nc5ccccc5s4)CC3)ccc2c1=O | 0.23 | 61.7 | 98.2 | 268 | 98.1 |  | Non-toxic |  |  |  |  |  |  |  |  | 
14 | CCOC(=O)c1cn(Cc2nc3ccccc3[nH]2)c2nc(N3CCN(c4nc5ccccc5s4)CC3)ccc2c1=O |  |  | 38.3 |  | 45.5 |  |  |  |  |  |  |  |  |  |  | 
15 | CCOC(=O)c1cn(Cc2ccc(Cl)cc2)c2nc(N3CCN(c4nc5ccccc5s4)CC3)ccc2c1=O | 2.37 | > 100 | 90 | >42.1 | 90 |  | Non-toxic |  |  |  |  |  |  |  |  | 
16 | CCOC(=O)c1cn(Cc2cccc(Cl)c2F)c2nc(N3CCN(c4ccccn4)CC3)ccc2c1=O | 1.12 | > 100 | 89.2 | >89.2 | 93.1 |  | Non-toxic |  |  |  |  |  |  |  |  | Dose-dependent effect
17 | CCOC(=O)c1cn(Cc2ccc3[nH]ccc3c2)c2nc(N3CCN(c4nc5ccccc5s4)CC3)ccc2c1=O | 0.13 | > 100 | 93.6 | >769 | 90.2 |  | Non-toxic |  |  |  |  |  |  |  |  | 
18 | CCOC(=O)c1cn(Cc2cccc(Cl)c2)c2nc(N3CCN(c4nc5ccccc5s4)CC3)ccc2c1=O | 2.62 | > 100 | 96 | >38.1 | 96 |  | Non-toxic |  |  |  |  |  |  |  |  | 
19 | O=C(O)c1cn(Cc2ccccn2)c2nc(N3CCN(c4nc5ccccc5s4)CC3)ccc2c1=O |  |  | 24 |  | 61 |  |  |  |  |  |  |  |  |  |  | 
20 | O=C(O)c1cn(Cc2ccccc2)c2nc(N3CCN(c4nc5ccccc5s4)CC3)ccc2c1=O | 4.55 | 69.6 | 100 | 15.2 | 100 |  | Non-toxic |  |  |  |  |  |  |  |  | 
21 | CCOC(=O)c1cn(Cc2cccc(Cl)c2F)c2nc(N3CCN(c4nc5ccccc5o4)CC3)ccc2c1=O | 0.39 | > 100 | 88.1 | >256 | 83.9 |  |  |  |  |  |  |  |  |  |  | 
22 | O=C(O)c1cn(CCc2ccccn2)c2nc(N3CCN(c4nc5ccccc5s4)CC3)ccc2c1=O |  |  | 0 |  | 0 |  |  |  |  |  |  |  |  |  |  | 
